# Reference: paper PMC12951562, “SH2scan: Mapping SH2 Domain-Ligand Binding Selectivity for Inhibitors and Degraders” (Journal of Medicinal Chemistry, 2026)
# Non-standard residues stand in square brackets, D forms with d. Residues, ends and D or L forms follow the SMILES beside them. pY = N[C@@H](Cc1ccc(OP(=O)(O)O)cc1)C(=O)O
# How the values were obtained:
# Assay in all cases: biochemical
# Assay type in all cases: binding
# GRB14 = target: T1, GRB14 (Homo sapiens, UniProt Q14449)
# T1 construct: the DNA-tagged SH2 domain concentrations used in this study were <0.1 nM; made in house; host or cells: HEK293 (transient transfection; unpurified extract)
# T1 sequence (Q14449 439-535 limits assumed): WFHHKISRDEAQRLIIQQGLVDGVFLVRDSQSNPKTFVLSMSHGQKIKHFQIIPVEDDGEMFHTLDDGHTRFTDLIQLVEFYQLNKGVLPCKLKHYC
# PLCG2(SH2dom.N-term.) = target: T2, PLCG2(SH2dom.N-term.) (Homo sapiens, UniProt P16885)
# T2 construct: SH2dom.N-term. denotes SH2 domain closest to N-terminus of protein; made in house; host or cells: HEK293 (transient transfection, unpurified extract)
# T2 sequence (P16885 532-635 limits assumed): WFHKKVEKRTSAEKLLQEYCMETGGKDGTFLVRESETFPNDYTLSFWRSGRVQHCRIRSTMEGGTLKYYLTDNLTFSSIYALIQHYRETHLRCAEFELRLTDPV
# CRK = target: T3, CRK (Homo sapiens, UniProt P46108)
# T3 construct: the DNA-tagged SH2 domain concentrations used in this study were <0.1 nM; made in house; host or cells: HEK293 (transient transfection; unpurified extract)
# T3 sequence (P46108 13-118 limits assumed): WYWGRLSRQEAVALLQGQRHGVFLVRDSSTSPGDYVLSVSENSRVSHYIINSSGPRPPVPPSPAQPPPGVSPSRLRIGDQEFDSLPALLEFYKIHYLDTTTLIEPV
# CSK = target: T4, CSK (Homo sapiens, UniProt P41240)
# T4 construct: the DNA-tagged SH2 domain concentrations used in this study were <0.1 nM; made in house; host or cells: HEK293 (transient transfection; unpurified extract)
# T4 sequence (P41240 82-171 limits assumed): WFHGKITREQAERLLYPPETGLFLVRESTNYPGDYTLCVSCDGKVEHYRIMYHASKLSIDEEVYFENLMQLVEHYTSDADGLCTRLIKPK
# SHIP2 = target: T5, SHIP2 (Homo sapiens, UniProt O15357)
# T5 construct: made in house; host or cells: HEK293 (transient transfection), unpurified extract
# T5 sequence (O15357 1-1258): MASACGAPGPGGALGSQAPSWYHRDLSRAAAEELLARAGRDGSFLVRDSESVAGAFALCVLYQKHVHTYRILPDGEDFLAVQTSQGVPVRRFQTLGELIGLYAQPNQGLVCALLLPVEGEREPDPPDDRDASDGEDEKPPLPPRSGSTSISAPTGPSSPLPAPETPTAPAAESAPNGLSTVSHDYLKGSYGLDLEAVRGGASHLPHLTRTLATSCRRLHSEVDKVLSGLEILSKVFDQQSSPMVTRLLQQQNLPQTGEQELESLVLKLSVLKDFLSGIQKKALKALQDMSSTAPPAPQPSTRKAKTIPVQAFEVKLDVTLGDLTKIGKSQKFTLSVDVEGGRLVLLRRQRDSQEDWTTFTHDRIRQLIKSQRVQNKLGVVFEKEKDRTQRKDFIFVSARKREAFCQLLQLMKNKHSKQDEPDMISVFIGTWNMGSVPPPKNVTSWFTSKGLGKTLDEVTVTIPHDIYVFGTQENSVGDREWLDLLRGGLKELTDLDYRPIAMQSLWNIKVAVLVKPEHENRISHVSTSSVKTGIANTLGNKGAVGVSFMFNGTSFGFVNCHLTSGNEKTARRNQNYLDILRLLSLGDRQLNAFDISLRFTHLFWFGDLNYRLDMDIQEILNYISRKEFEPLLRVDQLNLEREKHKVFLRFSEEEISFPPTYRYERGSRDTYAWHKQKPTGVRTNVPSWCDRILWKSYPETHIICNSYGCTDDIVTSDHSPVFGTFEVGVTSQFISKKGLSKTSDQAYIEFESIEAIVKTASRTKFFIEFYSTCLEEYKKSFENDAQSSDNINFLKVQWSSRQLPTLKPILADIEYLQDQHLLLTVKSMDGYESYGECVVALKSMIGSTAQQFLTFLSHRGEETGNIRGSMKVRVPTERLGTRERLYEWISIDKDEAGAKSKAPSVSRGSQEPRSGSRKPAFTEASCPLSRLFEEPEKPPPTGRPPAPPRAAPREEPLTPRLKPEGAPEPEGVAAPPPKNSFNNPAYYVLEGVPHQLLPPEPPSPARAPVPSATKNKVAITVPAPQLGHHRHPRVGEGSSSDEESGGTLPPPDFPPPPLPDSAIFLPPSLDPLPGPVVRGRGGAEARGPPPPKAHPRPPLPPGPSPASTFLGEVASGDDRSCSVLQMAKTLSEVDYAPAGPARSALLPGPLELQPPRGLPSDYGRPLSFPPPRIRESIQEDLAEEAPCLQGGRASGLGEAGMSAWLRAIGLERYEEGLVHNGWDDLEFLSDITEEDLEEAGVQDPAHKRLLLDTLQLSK
# SHIP1 = target: T6, SHIP1 (Homo sapiens, UniProt Q92835)
# T6 construct: made in house; host or cells: HEK293 (transient transfection), unpurified extract
# T6 sequence (Q92835 1-1189): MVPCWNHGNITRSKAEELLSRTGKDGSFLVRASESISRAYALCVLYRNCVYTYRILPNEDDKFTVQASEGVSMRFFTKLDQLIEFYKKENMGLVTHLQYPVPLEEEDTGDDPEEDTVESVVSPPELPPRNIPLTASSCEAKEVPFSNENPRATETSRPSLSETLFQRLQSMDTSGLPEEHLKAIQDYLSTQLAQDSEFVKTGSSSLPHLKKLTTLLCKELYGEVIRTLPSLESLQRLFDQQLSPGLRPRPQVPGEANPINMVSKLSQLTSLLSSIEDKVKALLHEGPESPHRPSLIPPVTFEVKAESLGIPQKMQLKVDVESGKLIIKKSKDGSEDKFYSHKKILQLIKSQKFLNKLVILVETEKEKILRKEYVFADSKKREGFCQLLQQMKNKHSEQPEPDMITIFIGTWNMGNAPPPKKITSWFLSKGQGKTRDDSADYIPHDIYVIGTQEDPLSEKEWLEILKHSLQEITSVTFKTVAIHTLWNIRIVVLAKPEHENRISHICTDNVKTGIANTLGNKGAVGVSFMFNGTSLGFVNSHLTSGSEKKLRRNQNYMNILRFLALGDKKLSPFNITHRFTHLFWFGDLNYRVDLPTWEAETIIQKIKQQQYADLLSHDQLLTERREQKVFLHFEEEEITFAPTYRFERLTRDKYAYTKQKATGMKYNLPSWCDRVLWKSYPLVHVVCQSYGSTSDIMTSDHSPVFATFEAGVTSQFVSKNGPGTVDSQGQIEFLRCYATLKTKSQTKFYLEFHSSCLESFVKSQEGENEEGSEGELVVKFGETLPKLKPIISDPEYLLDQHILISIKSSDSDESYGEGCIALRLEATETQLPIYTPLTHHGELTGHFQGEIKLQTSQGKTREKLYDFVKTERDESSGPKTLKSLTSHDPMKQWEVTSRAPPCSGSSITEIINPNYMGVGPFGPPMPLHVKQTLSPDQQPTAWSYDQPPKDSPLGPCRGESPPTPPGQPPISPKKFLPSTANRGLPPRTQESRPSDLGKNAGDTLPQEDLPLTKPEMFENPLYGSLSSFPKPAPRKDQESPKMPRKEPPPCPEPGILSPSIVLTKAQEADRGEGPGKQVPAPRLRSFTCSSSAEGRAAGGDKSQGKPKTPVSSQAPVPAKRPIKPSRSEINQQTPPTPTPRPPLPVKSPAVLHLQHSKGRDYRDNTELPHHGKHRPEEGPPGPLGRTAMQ
# LNK (SH2B3) = target: T7, LNK (SH2B3) (Homo sapiens, UniProt Q9UQQ2)
# T7 construct: the DNA-tagged SH2 domain concentrations used in this study were <0.1 nM; made in house; host or cells: HEK293 (transient transfection, unpurified extract)
# T7 sequence (Q9UQQ2 364-462 limits assumed): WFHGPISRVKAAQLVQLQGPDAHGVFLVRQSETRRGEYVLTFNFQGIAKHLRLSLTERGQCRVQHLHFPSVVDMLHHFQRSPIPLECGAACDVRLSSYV
# GRB7 = target: T8, GRB7 (Homo sapiens, UniProt Q14451)
# T8 construct: the DNA-tagged SH2 domain concentrations used in this study were <0.1 nM; made in house; host or cells: HEK293 (transient transfection; unpurified extract)
# T8 sequence (Q14451 431-527 limits assumed): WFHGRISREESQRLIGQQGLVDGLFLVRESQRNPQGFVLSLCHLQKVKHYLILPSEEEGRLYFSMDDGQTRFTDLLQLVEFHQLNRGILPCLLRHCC
# ABL2 = target: T9, ABL2 (Homo sapiens, UniProt P42684)
# T9 construct: the DNA-tagged SH2 domain concentrations used in this study were <0.1 nM; made in house; host or cells: HEK293 (transient transfection; unpurified extract)
# T9 sequence (P42684 173-263 limits assumed): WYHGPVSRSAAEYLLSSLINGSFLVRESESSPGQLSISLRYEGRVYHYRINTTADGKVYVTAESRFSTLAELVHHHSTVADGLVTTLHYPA
# PLCG1(SH2dom.N-term.) = target: T10, PLCG1(SH2dom.N-term.) (Homo sapiens, UniProt P19174)
# T10 construct: SH2dom.N-term. denotes SH2 domain closest to N-terminus of protein; made in house; host or cells: HEK293 (transient transfection, unpurified extract)
# T10 sequence (P19174 550-657 limits assumed): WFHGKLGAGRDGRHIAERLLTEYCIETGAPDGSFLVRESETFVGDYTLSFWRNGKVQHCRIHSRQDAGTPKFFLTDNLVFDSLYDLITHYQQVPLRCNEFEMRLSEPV
# FES = target: T11, FES (Homo sapiens, UniProt P07332)
# T11 construct: the DNA-tagged SH2 domain concentrations used in this study were <0.1 nM; made in house; host or cells: HEK293 (transient transfection; unpurified extract)
# T11 sequence (P07332 460-549 limits assumed): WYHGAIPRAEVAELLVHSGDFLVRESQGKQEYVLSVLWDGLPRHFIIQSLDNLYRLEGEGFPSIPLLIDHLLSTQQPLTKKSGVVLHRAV
structure (smiles),measurement,setting,value
CSCC[C@H](NC(=O)[C@@H](NC(=O)[C@H](CCC(=O)O)NC(=O)[C@H](Cc1ccc(OP(=O)(O)O)cc1)NC(=O)[C@H](CC(C)C)NC(=O)[C@@H]1CCCN1C(=O)[C@H](CC(=O)O)NC(=O)[C@@H]1CCCN1C(C)=O)C(C)C)C(=O)N[C@@H](CC(C)C)C(=O)N[C@@H](CCCCN)C(=O)N[C@@H](CS)C(=O)N[C@@H](Cc1c[nH]c2ccccc12)C(=O)N[C@@H](CC(=O)O)C(N)=O (Ac-PDPL[pY]EVMLKCWD-NH2),Kd,GRB14,298 ± 131 nM
CC[C@H](C)[C@H](NC(=O)[C@@H](NC(=O)[C@H](CC(C)C)NC(=O)[C@H](Cc1ccc(OP(=O)(O)O)cc1)NC(=O)[C@H](CCCNC(=N)N)NC(=O)[C@H](CCC(N)=O)NC(=O)[C@@H]1CCCN1C(=O)[C@H](CC(=O)O)NC(C)=O)C(C)C)C(=O)N[C@@H](CCC(N)=O)C(=O)NCC(=O)N[C@@H](CC(=O)O)C(=O)N[C@@H](CCC(=O)O)C(=O)N[C@@H](CC(=O)O)C(N)=O [Ac-DPQRpYLVIQGDED-NH2] (Ac-DPQR[pY]LVIQGDED-NH2),Kd,PLCG2(SH2dom.N-term.),521 ± 25.4 nM
CC(=O)N[C@@H](CCC(=O)O)C(=O)N1CCC[C@H]1C(=O)N[C@@H](C)C(=O)N[C@@H](Cc1c[nH]cn1)C(=O)N[C@@H](C)C(=O)N[C@@H](Cc1ccc(OP(=O)(O)O)cc1)C(=O)N[C@@H](C)C(=O)N[C@@H](CCC(N)=O)C(=O)N1CCC[C@H]1C(=O)N[C@@H](CCC(N)=O)C(=O)N[C@H](C(=O)N[C@H](C(N)=O)[C@@H](C)O)[C@@H](C)O [Ac-EPAHApYAQPQTT-NH2] (Ac-EPAHA[pY]AQPQTT-NH2),Kd,CRK,1520 ± 695 nM
CC[C@H](C)[C@H](NC(C)=O)C(=O)N[C@@H](CO)C(=O)N[C@@H](C)C(=O)N[C@@H](CCSC)C(=O)N[C@@H](Cc1ccc(OP(=O)(O)O)cc1)C(=O)N[C@@H](CO)C(=O)N[C@@H](CO)C(=O)N[C@H](C(=O)N[C@@H](CCSC)C(=O)N[C@@H](CCCCN)C(N)=O)C(C)C [Ac-ISAMpYSSVMK-NH2] (Ac-ISAM[pY]SSVMK-NH2),Kd,CSK,48.3 ± 8.04 nM
CC(=O)N[C@@H](CC(N)=O)C(=O)N[C@@H](CC(N)=O)C(=O)N[C@H](C(=O)N[C@@H](C)C(=O)N[C@@H](Cc1ccc(OP(=O)(O)O)cc1)C(=O)N[C@@H](CO)C(=O)N[C@@H](Cc1ccc(O)cc1)C(=O)N[C@@H](CC(C)C)C(=O)N[C@@H](CC(C)C)C(=O)N[C@@H](CC(N)=O)C(=O)N[C@@H](CCCNC(=N)N)C(N)=O)C(C)C [Ac-NNVApYSYLLNR-NH2] (Ac-NNVA[pY]SYLLNR-NH2),Kd,SHIP2,3310 ± 622 nM
same,Kd,SHIP1,241 ± 71.8 nM
CC(=O)N[C@@H](CC(N)=O)C(=O)N[C@H](C(=O)NCC(=O)N[C@@H](CC(=O)O)C(=O)N[C@@H](Cc1ccc(OP(=O)(O)O)cc1)C(=O)N[C@@H](Cc1ccc(O)cc1)C(=O)N[C@@H](CC(=O)O)C(=O)N[C@@H](CC(C)C)C(=O)N[C@@H](Cc1ccc(O)cc1)C(=O)NCC(N)=O)[C@@H](C)O [Ac-NTGDpYYDLYG-NH2] (Ac-NTGD[pY]YDLYG-NH2),Kd,LNK (SH2B3),3220 ± 595 nM
CC(=O)N1CCC[C@H]1C(=O)N[C@@H](CCC(=O)O)C(=O)N[C@@H](Cc1ccc(OP(=O)(O)O)cc1)C(=O)N[C@H](C(=O)N[C@@H](CC(N)=O)C(=O)N[C@@H](CCC(N)=O)C(N)=O)C(C)C [Ac-PEpYVNQ-NH2] (Ac-PE[pY]VNQ-NH2),Kd,GRB7,4470 ± 557 nM
CC[C@H](C)[C@H](NC(=O)[C@@H]1CCCN1C(=O)[C@H](CO)NC(=O)[C@H](CO)NC(C)=O)C(=O)N[C@@H](Cc1ccc(OP(=O)(O)O)cc1)C(=O)N[C@@H](CCC(=O)O)C(=O)N[C@@H](CC(=O)O)C(=O)N[C@@H](C)C(=O)N[C@@H](C)C(N)=O [Ac-SSPIpYEDAA-NH2] (Ac-SSPI[pY]EDAA-NH2),Kd,ABL2,6200 ± 584 nM
CSCC[C@H](NC(=O)[C@H](CO)NC(=O)[C@H](CC(C)C)NC(=O)[C@H](CC(=O)O)NC(=O)[C@H](CC(C)C)NC(=O)[C@H](Cc1ccc(OP(=O)(O)O)cc1)NC(=O)[C@H](CCC(=O)O)NC(=O)[C@H](CCC(N)=O)NC(=O)[C@H](CC(N)=O)NC(=O)[C@H](CO)NC(=O)[C@@H](NC(C)=O)[C@@H](C)O)C(N)=O [Ac-TSNQEpYLDLSM-NH2] (Ac-TSNQE[pY]LDLSM-NH2),Kd,PLCG1(SH2dom.N-term.),116 ± 6.69 nM
CC(=O)N[C@H](C(=O)N[C@@H](Cc1ccc(OP(=O)(O)O)cc1)C(=O)N[C@@H](CCC(=O)O)C(=O)N1CCC[C@H]1C(=O)N[C@H](C(=O)N[C@@H](CO)C(=O)N[C@@H](Cc1ccc(O)cc1)C(N)=O)C(C)C)C(C)C [Ac-VpYEPVSY-NH2] (Ac-V[pY]EPVSY-NH2),Kd,FES,711 ± 170 nM
